System: OBX mice
Test: Tail-suspension test and forced swim test in OBX mice (depression model)
Assay type: in vivo
Settings: single oral dose 1 mg/kg, analyzed after 1 hour
Experimental: OBX mice were used as a depression model to determine the effect of TP-014 (chronic oral treatment for 2 weeks (1 mg/kg)) to ameliorate a depression-like symptom. OBX mice are reported to show a decline in cognitive function, but have originally been established as a depression model. Depression analysis was done by tail-suspension test and forced swim test. In the tail-suspension test, mice are hung upside-down by their tail. If the hung mice are affected by depression, they show a longer immobility time. The immobility time of normal mice is shorter since they move actively when hung. In the forced swim test, mice are forced to swim in a beaker filled with water. Depression mice neither swim nor move (just float). The time (immobility time(s)) for which mice stay still in such a way is measured.
The same model mice were orally treated with a single dose of each of the test compounds (1 mg/kg), and analyzed after 1 hour by tail-suspension test and forced swim test. The results are shown in FIGS. 22-1 (tail-suspension test) and 22-2 (forced swim test).

CC(C)(C)C(=O)N[C@@H](c1ccccc1)[C@H]1[C@H]2C[C@@H]3C[C@](Cl)(C2)C[C@@]1(O)C3 [TP-083, N—((R)-((1S,2R,3S,5S,7S)-5-chloro-1-hydroxyadamantan-2-yl)(phenyl)methyl)pivalamide]
ameliorating effect on a depression-like symptom (tail-suspension test and forced swim test) compared with TP-014: higher ameliorating effect on a depression-like symptom than TP-014

From patent US11608313B2, “Adamantylmethylamine derivative and use thereof as pharmaceutical” (TOHOKU UNIVERSITY, priority 2017, dated 2023)
